The subject of series [1] is RAW264.7. Nature of the series: Inhibition of LPS-induced nitric oxide production in mouse RAW264.7 cells after 24 hrs by Griess reaction. To be noted: RAW264.7, 24 h. It counts as functional, cell-based.
The subject of series [2] is RAW264.7. In words: Cytotoxicity against mouse RAW264.7 cells assessed as cell viability at IC50 by colorimetric assay. It counts as cell-based.

Some results are limits rather than exact numbers.

Compound `CC(=O)O[C@@H](CC1=C(O)C(=O)OC1)[C@]1(C)C2CCC=C(C)[C@]2(C)[C@@H](OC(=O)c2cccnc2)[C@H](OC(=O)c2cccnc2)[C@]1(C)O` (stereo not given in full) showed an IC50 in series [1] greater than 50 µM. In series [2], the Activity entry is recorded as “Non-toxic”.
On to `CC1=CCCC2[C@@]1(C)[C@@H](OC(=O)c1cccnc1)[C@H](O)[C@]1(C)O[C@]3(COC(=O)C3)C[C@H](OC(=O)c3cccnc3)[C@]21C` (stereo not given in full), for which the IC50 in series [1] was greater than 50 µM. In addition, the Activity entry in series [2] is recorded as “Non-toxic”.
The like results for `CC1=CC[C@@H](OC(=O)c2cccnc2)C2[C@@]1(C)[C@@H](OC(=O)c1cccnc1)C[C@]1(C)O[C@@]3(CC[C@]21C)COC(=O)C3` (stereo not given in full) were, in that order, 35.6 µM and “Non-toxic”.
The like results for `CC1=CCCC2[C@@]1(C)[C@@H](OC(=O)c1ccccc1)[C@H](OC(=O)c1cccnc1)[C@](C)(O)[C@]2(C)/C=C/C1=CC(=O)OC1` (stereo not given in full) were, in that order, 27.7 µM and “Non-toxic”.
For `CC(=O)O[C@H]1[C@H](OC(C)=O)[C@]2(C)O[C@]3(CC[C@]2(C)C2[C@H](OC(=O)c4ccccc4)CC=C(C)[C@@]21C)COC(=O)C3` (stereo not given in full), in that order: greater than 50 µM and “Non-toxic”.
For the compound `CC1=CC[C@@H](OC(=O)c2ccccc2)C2[C@@]1(C)[C@@H](OC(=O)c1cccnc1)[C@H](OC(=O)c1cccnc1)[C@]1(C)O[C@]3(CC[C@]21C)COC(=O)C3` (stereo not given in full), the IC50 in series [1] came to 20.2 µM. The Activity result in series [2] is “Non-toxic”.
For `CC1=CCCC2[C@@]1(C)[C@@H](OC(=O)c1cccnc1)[C@H](OC(=O)c1ccccc1)[C@](C)(O)[C@]2(C)/C=C/C1=CC(=O)OC1` (stereo not given in full), the IC50 in series [1] was determined as 22.8 µM. The Activity result in series [2] is “Non-toxic”.
Consider `C[C@@]12[C@@H](OC(=O)c3cccnc3)[C@H](OC(=O)c3ccccc3)[C@](C)(O)[C@](C)(/C=C/C3=CC(=O)OC3)[C@H]1CC=C[C@]2(C)O` [SCUTEBARBATINE F], for which, in series [1], the IC50 is greater than 50 µM. The Activity entry in series [2] was “Non-toxic”.
On to `CC(=O)O[C@@H](CC1=C(O)C(=O)OC1)[C@]1(C)C2CCC=C(C)[C@]2(C)[C@@H](OC(=O)c2cccnc2)[C@H](OC(=O)c2ccccc2)[C@]1(C)O` (stereo not given in full), for which the IC50 in series [1] is greater than 50 µM. Moreover, the Activity entry in series [2] was “Non-toxic”.
The like results for `CC1=CC[C@@H](OC(=O)c2cccnc2)C2[C@@]1(C)[C@@H](OC(=O)c1cccnc1)[C@H](OC(=O)c1ccccc1)[C@]1(C)O[C@]3(CC[C@]21C)COC(=O)C3` (stereo not given in full) were, in that order, 21.5 µM and “Non-toxic”.
For `CC1=CC[C@@H](OC(=O)c2ccccc2)C2[C@@]1(C)[C@@H](OC(=O)c1cccnc1)[C@H](OC(=O)c1ccccc1)[C@]1(C)O[C@]3(CC[C@]21C)COC(=O)C3` (stereo not given in full), in that order: greater than 50 µM and “Non-toxic”.
The like results for `CC1=CCCC2[C@@]1(C)[C@@H](OC(=O)c1cccnc1)[C@H](OC(=O)c1cccnc1)[C@](C)(O)[C@]2(C)/C=C/C1=CC(=O)OC1` (stereo not given in full) were, in that order, 26.3 µM and “Non-toxic”.
As to `CC(=O)O[C@@H](CC1=C(O)C(=O)OC1)[C@]1(C)C2CCC=C(C)[C@]2(C)[C@@H](OC(=O)c2cccnc2)[C@H](O)[C@]1(C)O` (stereo not given in full), in series [1], the IC50 is greater than 50 µM. Moreover, the Activity result in series [2] is recorded as “Non-toxic”.
The like results for `C=C1CCCC2[C@@]1(C)[C@@H](OC(=O)c1ccccc1)[C@H](O)[C@]1(C)O[C@]3(COC(=O)C3)C[C@H](OC(=O)c3ccccc3)[C@]21C` (stereo not given in full) were, in that order, 20.6 µM and “Non-toxic”.
In turn, `CC1=CC[C@@H](OC(=O)c2ccccc2)C2[C@@]1(C)[C@@H](OC(=O)c1cccnc1)[C@H](O)[C@]1(C)O[C@@]3(CC[C@]21C)COC(=O)C3` (stereo not given in full) showed a concentration for half-maximal inhibition (IC50) in series [1] of 34.2 µM. Moreover, in series [2], the Activity result is reported as “Non-toxic”.

These data come from ChEMBL document CHEMBL3608204, “neo-Clerodane Diterpenoids from Scutellaria barbata and Their Inhibitory Effects on LPS-Induced Nitric Oxide Production” (J Nat Prod, 2015).
